Measurements from ChEMBL document CHEMBL4616582, “Green recipes to quinoline: A review” (Eur J Med Chem, 2019).
Converted amounts (≈) assume the structure as drawn.

How the values were obtained:
Plasmodium falciparum = assay: Antimalarial activity against chloroquine and quinine sensitive Plasmodium falciparum; format: functional, organism-based
Leishmania donovani [1] = assay: Antileishmanial activity against Leishmania donovani amastigotes; format: functional, organism-based
Leishmania donovani [2] = assay: Antileishmanial activity against Leishmania donovani promastigotes; format: functional, organism-based
HepG2 = assay: Cytotoxicity against human HepG2 cells assessed as reduction in cell viability by MTT assay; format: functional, cell-based

| SMILES | IC50 (Plasmodium falciparum) | IC50 (Leishmania donovani [1]) | IC50 (Leishmania donovani [2]) | also measured |
| --- | --- | --- | --- | --- |
| COc1ccc(NN2C(N)=C(C#N)C(c3c(C)nn(-c4ccccc4)c3Oc3ccccc3F)C3=C2CC(C)(C)CC3=O)cc1 (configuration not stated) | 0.042 to 0.09 mg/L (≈ 0.0695 to 0.149 µM) | – | – | – |
| Cc1nn(-c2ccccc2)c(Oc2cccc(F)c2)c1C1C(C#N)=C(N)N(Nc2ccc(Br)cc2)C2=C1C(=O)CC(C)(C)C2 (configuration not stated) | 0.042 to 0.09 mg/L (≈ 0.0643 to 0.138 µM) | – | – | – |
| Nc1ccc(Cl)cc1C(=O)c1ccccc1 | – | 1.34 to 3.26 mg/L (≈ 5.78 to 14.1 µM) | 1.34 to 3.26 mg/L (≈ 5.78 to 14.1 µM) | – |
| Cc1nn(-c2ccccc2)c(Oc2ccccc2F)c1C1C(C#N)=C(N)N(Nc2ccccc2)C2=C1C(=O)CC(C)(C)C2 (configuration not stated) | 0.042 to 0.09 mg/L (≈ 0.0731 to 0.157 µM) | – | – | – |
| C=C[C@H]1CN2CC[C@H]1C[C@H]2[C@H](O)c1ccnc2ccc(OC)cc12 [QUININE] | 0.268 mg/L (≈ 0.826 µM) | – | – | – |
| CSC(=S)/C=C(\O)c1ccc(C)cc1 | – | 1.34 to 3.26 mg/L (≈ 5.97 to 14.5 µM) | 1.34 to 3.26 mg/L (≈ 5.97 to 14.5 µM) | – |
| Nc1ccccc1C(=O)c1ccccc1 | – | 1.34 to 3.26 mg/L (≈ 6.79 to 16.5 µM) | 1.34 to 3.26 mg/L (≈ 6.79 to 16.5 µM) | – |
| Cc1nn(-c2ccccc2)c(Oc2cccc(C(F)(F)F)c2)c1C1C(C#N)=C(N)N(Nc2ccccc2)C2=C1C(=O)CC(C)(C)C2 (configuration not stated) | 0.042 to 0.09 mg/L (≈ 0.0672 to 0.144 µM) | – | – | – |
| CC(C)=CCC[C@]1(C)C=Cc2c(O)c3c(c(CC=C(C)C)c2O1)O[C@]12C(=C[C@@H]4C[C@H]1C(C)(C)O[C@@]2(C/C=C(/C)C(=O)O)C4=O)C3=O [GAMBOGIC ACID] | – | – | – | IC50 (HepG2): 1.55 µM |
| O=c1c2c(Cl)cc(Cl)c(F)c2n(-c2ccccc2)c2ss/c(=N\c3ccccc3)c12 | – | – | – | IC50 (HepG2): 0.984 µM |
| CCCCCCCCCCCCCCCCOP(=O)([O-])OCC[N+](C)(C)C [MILTEFOSINE] | – | 8.2 mg/L (≈ 20.1 µM) | 4.54 mg/L (≈ 11.1 µM) | – |
| Cc1nn(-c2ccccc2)c(Oc2cccc(C(F)(F)F)c2)c1C1C(C#N)=C(N)N(Nc2ccc(Br)cc2)C2=C1C(=O)CC(C)(C)C2 (configuration not stated) | 0.042 to 0.09 mg/L (≈ 0.0597 to 0.128 µM) | – | – | – |
| CC(=O)c1cc(C)ccc1Br | – | – | – | IC50 (HepG2): 0.984 µM |

More lines, main results first:

| IC50 (Plasmodium falciparum) | IC50 (Leishmania donovani [1]) | IC50 (Leishmania donovani [2]) | SMILES | also measured |
| --- | --- | --- | --- | --- |
| 0.042 to 0.09 mg/L (≈ 0.0643 to 0.138 µM) | – | – | Cc1nn(-c2ccccc2)c(Oc2ccccc2F)c1C1C(C#N)=C(N)N(Nc2ccc(Br)cc2)C2=C1C(=O)CC(C)(C)C2 (configuration not stated) | – |
| – | 1.34 to 3.26 mg/L (≈ 5.97 to 14.5 µM) | 1.34 to 3.26 mg/L (≈ 5.97 to 14.5 µM) | CSC(=S)/C=C(\O)c1cccc(C)c1 | – |
| 0.042 to 0.09 mg/L (≈ 0.0695 to 0.149 µM) | – | – | COc1ccc(NN2C(N)=C(C#N)C(c3c(C)nn(-c4ccccc4)c3Oc3cccc(F)c3)C3=C2CC(C)(C)CC3=O)cc1 (configuration not stated) | – |
| 0.042 to 0.09 mg/L (≈ 0.0642 to 0.137 µM) | – | – | COc1ccc(NN2C(N)=C(C#N)C(c3c(C)nn(-c4ccccc4)c3Oc3cccc(C(F)(F)F)c3)C3=C2CC(C)(C)CC3=O)cc1 (configuration not stated) | – |
| 0.042 to 0.09 mg/L (≈ 0.0709 to 0.152 µM) | – | – | Cc1nn(-c2ccccc2)c(Oc2cccc(F)c2)c1C1C(C#N)=C(N)N(Nc2ccc(F)cc2)C2=C1C(=O)CC(C)(C)C2 (configuration not stated) | – |
| 0.042 to 0.09 mg/L (≈ 0.069 to 0.148 µM) | – | – | Cc1nn(-c2ccccc2)c(Oc2ccccc2F)c1C1C(C#N)=C(N)N(Nc2ccc(Cl)cc2)C2=C1C(=O)CC(C)(C)C2 (configuration not stated) | – |
| – | 1.34 to 3.26 mg/L (≈ 5.47 to 13.3 µM) | 1.34 to 3.26 mg/L (≈ 5.47 to 13.3 µM) | CSC(=S)/C=C(\O)c1ccccc1Cl | – |
| 0.042 to 0.09 mg/L (≈ 0.0731 to 0.157 µM) | – | – | Cc1nn(-c2ccccc2)c(Oc2cccc(F)c2)c1C1C(C#N)=C(N)N(Nc2ccccc2)C2=C1C(=O)CC(C)(C)C2 (configuration not stated) | – |
| – | 1.34 to 3.26 mg/L (≈ 6.69 to 16.3 µM) | 1.34 to 3.26 mg/L (≈ 6.69 to 16.3 µM) | CSC(=S)/C=C(\O)c1ccco1 | – |
| – | 1.34 to 3.26 mg/L (≈ 4.81 to 11.7 µM) | 1.34 to 3.26 mg/L (≈ 4.81 to 11.7 µM) | CSC(=S)/C=C(\O)c1ccc(C(F)(F)F)cc1 | – |
| 0.042 to 0.09 mg/L (≈ 0.0709 to 0.152 µM) | – | – | Cc1nn(-c2ccccc2)c(Oc2ccc(F)cc2)c1C1C(C#N)=C(N)N(Nc2ccc(F)cc2)C2=C1C(=O)CC(C)(C)C2 (configuration not stated) | – |
| 0.042 to 0.09 mg/L (≈ 0.0731 to 0.157 µM) | – | – | Cc1nn(-c2ccccc2)c(Oc2ccc(F)cc2)c1C1C(C#N)=C(N)N(Nc2ccccc2)C2=C1C(=O)CC(C)(C)C2 (configuration not stated) | – |
| 0.042 to 0.09 mg/L (≈ 0.0709 to 0.152 µM) | – | – | Cc1nn(-c2ccccc2)c(Oc2ccccc2F)c1C1C(C#N)=C(N)N(Nc2ccc(F)cc2)C2=C1C(=O)CC(C)(C)C2 (configuration not stated) | – |
| 0.042 to 0.09 mg/L (≈ 0.0654 to 0.14 µM) | – | – | Cc1nn(-c2ccccc2)c(Oc2cccc(C(F)(F)F)c2)c1C1C(C#N)=C(N)N(Nc2ccc(F)cc2)C2=C1C(=O)CC(C)(C)C2 (configuration not stated) | – |
| 0.042 to 0.09 mg/L (≈ 0.0643 to 0.138 µM) | – | – | Cc1nn(-c2ccccc2)c(Oc2ccc(F)cc2)c1C1C(C#N)=C(N)N(Nc2ccc(Br)cc2)C2=C1C(=O)CC(C)(C)C2 (configuration not stated) | – |
| – | 1.34 to 3.26 mg/L (≈ 6.19 to 15.1 µM) | 1.34 to 3.26 mg/L (≈ 6.19 to 15.1 µM) | CSC(=S)/C=C(\O)c1cccs1 | – |
| – | 1.34 to 3.26 mg/L (≈ 5.58 to 13.6 µM) | 1.34 to 3.26 mg/L (≈ 5.58 to 13.6 µM) | COc1ccc(/C(O)=C/C(=S)SC)cc1 | – |
| – | 1.34 to 3.26 mg/L (≈ 6.37 to 15.5 µM) | 1.34 to 3.26 mg/L (≈ 6.37 to 15.5 µM) | CSC(=S)/C=C(\O)c1ccccc1 | – |
